Data: BindingDB's records for patent US11299488 (Bristol-Myers Squibb Company, 2022)

Target: Rho-associated protein kinase 2 (Homo sapiens, UniProt O75116)
Assay: In Vitro Assay
Protocol: The effectiveness of compounds of the present invention as ROCK inhibitors can be determined in a 30 μL assay containing 20 mM HEPES, pH 7.5, 20 mM MgCl2, 0.015% Brij-35, 4 mM DTT, 5 μM ATP and 1.5 μM peptide substrate (FITC-AHA-AKRRRLSSLRA-OH) (SEQ ID No. 1). Compounds were dissolved in DMSO so that the final concentration of DMSO was <2%, and the reaction was initiated with Rho kinase variants. After incubation, the reaction was terminated by the addition of EDTA and the phosphorylated and non-phosphorylated peptides separated using a LABCHIP 3000 Reader (Caliper Life Sciences). […] Compounds were tested in dose-response format, and the inhibition of kinase activity was calculated at each concentration of compound. The inhibition data were fit using a curve-fitting program to determine the IC50; i.e., the concentration of compound required to inhibit 50% of kinase activity.

Sequence of Rho-associated protein kinase 2 (O75116 whole entry): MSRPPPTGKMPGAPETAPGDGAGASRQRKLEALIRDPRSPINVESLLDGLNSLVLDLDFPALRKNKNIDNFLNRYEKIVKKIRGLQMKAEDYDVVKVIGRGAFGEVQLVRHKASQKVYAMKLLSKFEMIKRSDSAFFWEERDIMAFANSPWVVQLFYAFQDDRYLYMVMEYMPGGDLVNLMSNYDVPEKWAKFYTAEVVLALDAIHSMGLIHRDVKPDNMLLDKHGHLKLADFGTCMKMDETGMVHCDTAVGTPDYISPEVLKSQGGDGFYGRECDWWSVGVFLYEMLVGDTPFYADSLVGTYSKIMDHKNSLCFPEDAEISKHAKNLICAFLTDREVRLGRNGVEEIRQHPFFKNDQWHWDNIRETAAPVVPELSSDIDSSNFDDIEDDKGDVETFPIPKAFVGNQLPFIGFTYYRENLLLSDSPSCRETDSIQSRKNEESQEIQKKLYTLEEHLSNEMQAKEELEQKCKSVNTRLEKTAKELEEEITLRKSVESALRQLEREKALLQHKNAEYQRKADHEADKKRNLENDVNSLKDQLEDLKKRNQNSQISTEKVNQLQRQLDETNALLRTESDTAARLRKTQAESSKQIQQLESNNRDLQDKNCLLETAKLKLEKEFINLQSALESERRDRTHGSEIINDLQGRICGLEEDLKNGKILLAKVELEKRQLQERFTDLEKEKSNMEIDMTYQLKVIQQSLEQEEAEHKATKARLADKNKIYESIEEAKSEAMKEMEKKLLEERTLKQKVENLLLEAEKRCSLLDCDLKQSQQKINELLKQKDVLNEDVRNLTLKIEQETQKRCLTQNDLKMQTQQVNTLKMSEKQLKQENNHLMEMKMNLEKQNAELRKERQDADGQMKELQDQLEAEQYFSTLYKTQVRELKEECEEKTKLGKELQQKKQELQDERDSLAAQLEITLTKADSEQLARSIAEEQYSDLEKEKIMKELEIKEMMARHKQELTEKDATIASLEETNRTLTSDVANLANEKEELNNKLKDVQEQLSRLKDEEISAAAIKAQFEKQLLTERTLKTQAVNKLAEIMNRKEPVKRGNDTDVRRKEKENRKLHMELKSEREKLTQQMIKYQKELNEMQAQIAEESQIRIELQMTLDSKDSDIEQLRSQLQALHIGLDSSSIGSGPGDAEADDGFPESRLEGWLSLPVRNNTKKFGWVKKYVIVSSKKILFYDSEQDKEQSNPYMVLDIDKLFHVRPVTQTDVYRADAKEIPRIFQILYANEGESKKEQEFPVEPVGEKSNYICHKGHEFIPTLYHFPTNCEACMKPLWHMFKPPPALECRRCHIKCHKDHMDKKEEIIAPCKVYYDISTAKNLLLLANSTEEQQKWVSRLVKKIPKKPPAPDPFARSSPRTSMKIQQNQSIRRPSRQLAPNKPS

SMILES	IC50
NC(=O)c1cccnc1O[C@H]1CC2(C[C@H](Nc3nc(-c4ccc(Cl)cc4)cs3)C2)C1 (some centres not stated) [US11299488, Example 9]	3300 nM
NC(=O)c1cccnc1O[C@H]1CC2(C[C@H](Nc3nc4c(F)cc(Cl)cc4s3)C2)C1 (some centres not stated) [US11299488, Example 7]	396 nM
NC(=O)c1cccnc1O[C@H]1CC2(C[C@H](Nc3nc4c(Cl)cc(Cl)cc4s3)C2)C1 (some centres not stated) [US11299488, Example 5]	105 nM
NC(=O)c1cccnc1O[C@H]1CC2(C[C@H](Nc3nc4c(Cl)cccc4s3)C2)C1 (some centres not stated) [US11299488, Example 4]	76 nM

The next lines start with the values.

IC50	SMILES
1700 nM	NC(=O)c1cccnc1O[C@H]1CC2(C[C@H](Nc3nc(-c4ccccc4Cl)cs3)C2)C1 (some centres not stated) [US11299488, Example 10]
175 nM	NC(=O)c1cccnc1O[C@H]1CC2(C[C@H](Nc3nccc(N4CCCC(F)(F)C4)n3)C2)C1 (some centres not stated) [US11299488, Example 36]
15 nM	COc1cnc(N[C@H]2CC3(C2)C[C@H](Oc2ncccc2C(N)=O)C3)c2cc(Cl)ccc12 (some centres not stated) [US11299488, Example 27]
